These results are taken from PubChem BioAssay (NCI).

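The compound was tested at five concentrations on cells cultured in 96-well plates, with a 48-hour exposure period. TGI: concentration producing complete growth inhibition.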 Bounds are passed on as bounds.

One test has as its system NCI/ADR-RES ovarian. Put plainly: NCI tumour cell line growth inhibition, 48 h.
In turn, `O=C(O)CCC(=O)OC1N=C(c2ccccc2Cl)c2cc([N+](=O)[O-])ccc2NC1=O` (configuration not stated) came in with a TGI of more than 100 µM.

Consider `COc1ccc(C2=N/C(=C\c3ccccc3)C(=O)O2)cc1`, for which the TGI was found to be 43.4 µM.

In turn, `CC1(C)C2CCC1(C)[C@H](n1c(=O)n([C@@H]3CC4CCC3(C)C4(C)C)c(=O)n([C@@H]3CC4CCC3(C)C4(C)C)c1=O)C2` had a TGI of more than 100 µM.

Turning to `CC(=N/N=C/c1ccccn1)/C(C)=N/N=C(C)/C(C)=N/N=C(C)/C(C)=N/N=C(C)/C(C)=N\N=C\c1ccccn1`, the TGI is more than 100 µM.

In the case of `Cc1cc(C(=O)CCCCOc2ccc(C3=NCCO3)cc2)c(C)n1C`, the TGI was more than 100 µM.

The test system of another test is RPMI-8226 leukemia. In words: NCI tumour cell line growth inhibition, 48 h.
In turn, `O=C1c2ccccc2-c2c1c(-c1ccc(F)cc1)nc1ccc3ccccc3c21` showed a TGI of more than 100 µM.

`CC1CCC(C(=O)O)(C(Br)C(=O)O)CC1` (configuration not stated): the TGI was more than 100 µM.

Compound `COc1cc(NS(C)(=O)=O)ccc1Nc1cc(C)[nH]c2ccc3nccc3c12` displayed a TGI of more than 100 µM.

`CCOC(=O)Cn1c(=O)c2nc(SC)sc2n(-c2ccccc2)c1=O` registered a TGI of more than 100 µM.

Consider `CC1=C[C@@H]2Cc3nc4cc(Cl)ccc4c(N)c3[C@H](C1)C2`, for which the TGI was 13.4 µM.

Take `CSC(=S)N(C)C`: the TGI is more than 100 µM.

On to `COc1ccc2c(C)cc(=O)oc2c1OC`, for which the TGI is more than 100 µM.

`C=CCSc1nnc2cc(CN3CCCC3)c(-c3ccc(Cl)cc3)nn12` gave a TGI of more than 100 µM.

The compound `CCOC(=O)c1ccc(NCC#CCN2CCOCC2)cc1` had a TGI of more than 100 µM.

In turn, `CCN(CCCN(CC)C(=O)Nc1c(C)cccc1C)C(=O)Nc1c(C)cccc1C` came in with a TGI of more than 100 µM.

Turning to `CSC(=S)N/N=C(\C)c1ccc(S(=O)(=O)N(C)c2ccccc2)cc1`, the TGI is more than 100 µM.

With `CCNC(=O)Cc1nc2c(N)ncnc2n1C1OC(CO)C(O)C1O` (configuration not stated), the TGI is more than 100 µM.

Turning to `COc1ccc(C2=N/C(=C\c3ccccc3)C(=O)O2)cc1`, the TGI was more than 100 µM.

On to `CC1(C)C2CCC1(C)[C@H](n1c(=O)n([C@@H]3CC4CCC3(C)C4(C)C)c(=O)n([C@@H]3CC4CCC3(C)C4(C)C)c1=O)C2`, for which the TGI is more than 100 µM.

`CSc1nsc(-c2ccccc2)[s+]1` showed a TGI of more than 100 µM.

Compound `CC(=N/N=C/c1ccccn1)/C(C)=N/N=C(C)/C(C)=N/N=C(C)/C(C)=N/N=C(C)/C(C)=N\N=C\c1ccccn1` displayed a TGI of more than 100 µM.

On to `Cc1cc(C(=O)CCCCOc2ccc(C3=NCCO3)cc2)c(C)n1C`, for which the TGI is 62.4 µM.

The test system of the next test is M14 melanoma. Put plainly: NCI tumour cell line growth inhibition, 48 h.
Compound `O=C1c2ccccc2-c2c1c(-c1ccc(F)cc1)nc1ccc3ccccc3c21` registered a TGI of more than 100 µM.

`CC1CCC(C(=O)O)(C(Br)C(=O)O)CC1` (configuration not stated) yielded a TGI of more than 100 µM.

Take `COc1cc(NS(C)(=O)=O)ccc1Nc1cc(C)[nH]c2ccc3nccc3c12`: the TGI was more than 100 µM.

The compound `CCOC(=O)Cn1c(=O)c2nc(SC)sc2n(-c2ccccc2)c1=O` yielded a TGI of more than 100 µM.

`COc1ccc(-c2nc(SCC(=O)N/N=C/c3ccc(N(C)C)cc3)[nH]c2-c2ccc(OC)cc2)cc1`: the TGI is more than 100 µM.

For the compound `CC1=C[C@@H]2Cc3nc4cc(Cl)ccc4c(N)c3[C@H](C1)C2`, the TGI amounted to 18.1 µM.

Consider `CS(=O)(=O)OCC(CCl)(CCl)CCl`, for which the TGI is more than 100 µM.

For the compound `CSC(=S)N(C)C`, the TGI was more than 100 µM.

In turn, `COc1ccc2c(C)cc(=O)oc2c1OC` returned a TGI of more than 100 µM.

`C=CCSc1nnc2cc(CN3CCCC3)c(-c3ccc(Cl)cc3)nn12` gave a TGI of 34.7 µM.

Compound `O=c1[nH]c(Nc2nc3ccccc3[nH]2)nc(O)c1-c1ccccc1` yielded a TGI of more than 100 µM.

`CC1=NS(=O)(=O)c2ccccc2N1`: the TGI was more than 100 µM.

Regarding `COP(=O)(/C=C/c1cc(C(=O)OCc2ccccc2)n(S(=O)(=O)c2ccccc2)c1)OC`, the TGI is more than 100 µM.

Consider `CCOC(=O)c1ccc(NCC#CCN2CCOCC2)cc1`, for which the TGI was more than 100 µM.

Turning to `CCN(CCCN(CC)C(=O)Nc1c(C)cccc1C)C(=O)Nc1c(C)cccc1C`, the TGI is more than 100 µM.

As to `CSC(=S)N/N=C(\C)c1ccc(S(=O)(=O)N(C)c2ccccc2)cc1`, the TGI was more than 100 µM.

Regarding `CCNC(=O)Cc1nc2c(N)ncnc2n1C1OC(CO)C(O)C1O` (configuration not stated), the TGI is more than 100 µM.

`O=C(O)CCC(=O)OC1N=C(c2ccccc2Cl)c2cc([N+](=O)[O-])ccc2NC1=O` (configuration not stated) came in with a TGI of more than 100 µM.

In turn, `COc1ccc(C2=N/C(=C\c3ccccc3)C(=O)O2)cc1` returned a TGI of more than 100 µM.

`CC1(C)C2CCC1(C)[C@H](n1c(=O)n([C@@H]3CC4CCC3(C)C4(C)C)c(=O)n([C@@H]3CC4CCC3(C)C4(C)C)c1=O)C2` displayed a TGI of more than 100 µM.

As for `CSc1nsc(-c2ccccc2)[s+]1`, the TGI was more than 100 µM.

In turn, `CC(=N/N=C/c1ccccn1)/C(C)=N/N=C(C)/C(C)=N/N=C(C)/C(C)=N/N=C(C)/C(C)=N\N=C\c1ccccn1` yielded a TGI of more than 100 µM.

The compound `Cc1cc(C(=O)CCCCOc2ccc(C3=NCCO3)cc2)c(C)n1C` registered a TGI of more than 100 µM.

The test system of another test is NCI-H522 lung. Put plainly: NCI tumour cell line growth inhibition, 48 h.
As to `COc1cc(NS(C)(=O)=O)ccc1Nc1cc(C)[nH]c2ccc3nccc3c12`, the TGI was more than 100 µM.

In turn, `COc1ccc(-c2nc(SCC(=O)N/N=C/c3ccc(N(C)C)cc3)[nH]c2-c2ccc(OC)cc2)cc1` gave a TGI of more than 100 µM.

In turn, `CS(=O)(=O)OCC(CCl)(CCl)CCl` came in with a TGI of more than 100 µM.

Compound `CSC(=S)N(C)C` registered a TGI of more than 100 µM.

Consider `C=CCSc1nnc2cc(CN3CCCC3)c(-c3ccc(Cl)cc3)nn12`, for which the TGI was found to be 42.6 µM.

Turning to `O=c1[nH]c(Nc2nc3ccccc3[nH]2)nc(O)c1-c1ccccc1`, the TGI is more than 100 µM.

Regarding `CC1=NS(=O)(=O)c2ccccc2N1`, the TGI was more than 100 µM.

`COP(=O)(/C=C/c1cc(C(=O)OCc2ccccc2)n(S(=O)(=O)c2ccccc2)c1)OC` yielded a TGI of more than 100 µM.

The compound `CCN(CCCN(CC)C(=O)Nc1c(C)cccc1C)C(=O)Nc1c(C)cccc1C` came in with a TGI of more than 100 µM.

For the compound `CCNC(=O)Cc1nc2c(N)ncnc2n1C1OC(CO)C(O)C1O` (configuration not stated), the TGI was more than 100 µM.

In turn, `O=C(O)CCC(=O)OC1N=C(c2ccccc2Cl)c2cc([N+](=O)[O-])ccc2NC1=O` (configuration not stated) returned a TGI of more than 100 µM.

In turn, `CC1(C)C2CCC1(C)[C@H](n1c(=O)n([C@@H]3CC4CCC3(C)C4(C)C)c(=O)n([C@@H]3CC4CCC3(C)C4(C)C)c1=O)C2` showed a TGI of more than 100 µM.

`CSc1nsc(-c2ccccc2)[s+]1` came in with a TGI of more than 100 µM.

Compound `CC(=N/N=C/c1ccccn1)/C(C)=N/N=C(C)/C(C)=N/N=C(C)/C(C)=N/N=C(C)/C(C)=N\N=C\c1ccccn1` showed a TGI of more than 100 µM.

Turning to `Cc1cc(C(=O)CCCCOc2ccc(C3=NCCO3)cc2)c(C)n1C`, the TGI was more than 100 µM.

Another test has as its system HCC-2998 colon. Put plainly: NCI tumour cell line growth inhibition, 48 h.
Regarding `O=C1c2ccccc2-c2c1c(-c1ccc(F)cc1)nc1ccc3ccccc3c21`, the TGI was more than 100 µM.

Compound `CCOC(=O)Cn1c(=O)c2nc(SC)sc2n(-c2ccccc2)c1=O` yielded a TGI of more than 100 µM.

In turn, `COc1ccc(-c2nc(SCC(=O)N/N=C/c3ccc(N(C)C)cc3)[nH]c2-c2ccc(OC)cc2)cc1` gave a TGI of more than 100 µM.

In the case of `CS(=O)(=O)OCC(CCl)(CCl)CCl`, the TGI was more than 100 µM.

For the compound `O=c1[nH]c(Nc2nc3ccccc3[nH]2)nc(O)c1-c1ccccc1`, the TGI is more than 100 µM.

In turn, `CC1=NS(=O)(=O)c2ccccc2N1` had a TGI of more than 100 µM.

Consider `COP(=O)(/C=C/c1cc(C(=O)OCc2ccccc2)n(S(=O)(=O)c2ccccc2)c1)OC`, for which the TGI is more than 100 µM.

Compound `CCN(CCCN(CC)C(=O)Nc1c(C)cccc1C)C(=O)Nc1c(C)cccc1C` yielded a TGI of more than 100 µM.

For `CSC(=S)N/N=C(\C)c1ccc(S(=O)(=O)N(C)c2ccccc2)cc1`, the TGI is more than 100 µM.

`CCNC(=O)Cc1nc2c(N)ncnc2n1C1OC(CO)C(O)C1O` (configuration not stated): the TGI was more than 100 µM.

On to `O=C(O)CCC(=O)OC1N=C(c2ccccc2Cl)c2cc([N+](=O)[O-])ccc2NC1=O` (configuration not stated), for which the TGI is more than 100 µM.

Regarding `COc1ccc(C2=N/C(=C\c3ccccc3)C(=O)O2)cc1`, the TGI is more than 100 µM.

`CC1(C)C2CCC1(C)[C@H](n1c(=O)n([C@@H]3CC4CCC3(C)C4(C)C)c(=O)n([C@@H]3CC4CCC3(C)C4(C)C)c1=O)C2` displayed a TGI of 57.5 µM.

In the case of `CSc1nsc(-c2ccccc2)[s+]1`, the TGI is more than 100 µM.

For `CC(=N/N=C/c1ccccn1)/C(C)=N/N=C(C)/C(C)=N/N=C(C)/C(C)=N/N=C(C)/C(C)=N\N=C\c1ccccn1`, the TGI is more than 100 µM.

A further test relates to A549 NSCLC. Put plainly: NCI tumour cell line growth inhibition, 48 h.
`O=C1c2ccccc2-c2c1c(-c1ccc(F)cc1)nc1ccc3ccccc3c21`: the TGI is more than 100 µM.

In the case of `CC1CCC(C(=O)O)(C(Br)C(=O)O)CC1` (configuration not stated), the TGI is more than 100 µM.

For `COc1cc(NS(C)(=O)=O)ccc1Nc1cc(C)[nH]c2ccc3nccc3c12`, the TGI was more than 100 µM.

`CCOC(=O)Cn1c(=O)c2nc(SC)sc2n(-c2ccccc2)c1=O` displayed a TGI of more than 100 µM.

As for `COc1ccc(-c2nc(SCC(=O)N/N=C/c3ccc(N(C)C)cc3)[nH]c2-c2ccc(OC)cc2)cc1`, the TGI was more than 100 µM.

Consider `CC1=C[C@@H]2Cc3nc4cc(Cl)ccc4c(N)c3[C@H](C1)C2`, for which the TGI worked out at 34.9 µM.

`CS(=O)(=O)OCC(CCl)(CCl)CCl` showed a TGI of more than 100 µM.

Compound `CSC(=S)N(C)C` came in with a TGI of more than 100 µM.

As for `COc1ccc2c(C)cc(=O)oc2c1OC`, the TGI was more than 100 µM.

For `C=CCSc1nnc2cc(CN3CCCC3)c(-c3ccc(Cl)cc3)nn12`, the TGI was more than 100 µM.

The compound `O=c1[nH]c(Nc2nc3ccccc3[nH]2)nc(O)c1-c1ccccc1` returned a TGI of more than 100 µM.

`CC1=NS(=O)(=O)c2ccccc2N1` yielded a TGI of more than 100 µM.

Compound `COP(=O)(/C=C/c1cc(C(=O)OCc2ccccc2)n(S(=O)(=O)c2ccccc2)c1)OC` yielded a TGI of more than 100 µM.

`CCOC(=O)c1ccc(NCC#CCN2CCOCC2)cc1` gave a TGI of more than 100 µM.

As for `CCN(CCCN(CC)C(=O)Nc1c(C)cccc1C)C(=O)Nc1c(C)cccc1C`, the TGI is more than 100 µM.

For `CSC(=S)N/N=C(\C)c1ccc(S(=O)(=O)N(C)c2ccccc2)cc1`, the TGI was more than 100 µM.

In turn, `CCNC(=O)Cc1nc2c(N)ncnc2n1C1OC(CO)C(O)C1O` (configuration not stated) yielded a TGI of more than 100 µM.

With `O=C(O)CCC(=O)OC1N=C(c2ccccc2Cl)c2cc([N+](=O)[O-])ccc2NC1=O` (configuration not stated), the TGI was more than 100 µM.

The compound `COc1ccc(C2=N/C(=C\c3ccccc3)C(=O)O2)cc1` yielded a TGI of more than 100 µM.

`CC1(C)C2CCC1(C)[C@H](n1c(=O)n([C@@H]3CC4CCC3(C)C4(C)C)c(=O)n([C@@H]3CC4CCC3(C)C4(C)C)c1=O)C2` registered a TGI of more than 100 µM.

`CSc1nsc(-c2ccccc2)[s+]1` returned a TGI of more than 100 µM.

As for `CC(=N/N=C/c1ccccn1)/C(C)=N/N=C(C)/C(C)=N/N=C(C)/C(C)=N/N=C(C)/C(C)=N\N=C\c1ccccn1`, the TGI is more than 100 µM.
